Assay results as given in patent US8415351B2 (priority 2007, dated 2013).

Assays:
[1] = biological target: T1, HCV polymerase 1A (Δ21 NS5B, H77) (Hepatitis C virus genotype 1a, UniProt P27958); assay: biochemical; details: IC50 1a
T1 construct: 20 to 50 nM Δ21 NS5B
Description: (§1) HCV Polymerase Inhibition Assay
The reaction was initiated by the addition of 20 μM CTP, 20 μM ATP, 1 μM ^3H-UTP (10 mCi/umol), 5 nM template RNA and 0.1 U/μl RNase inhibitor (RNasin, Promega), and allowed to proceed for 2 to 4 h at room temperature. Reaction volume was 50 μl. The reaction was terminated by the addition of 1 volume of 4 mM spermine in 10 mM Tris-Cl pH 8.0, 1 mM EDTA. After incubation for at least 15 min at room temperature, the precipitated RNA was captured by filtering through a GF/B filter (Millipore) in a 96 well format. The filter plate was washed three times with 200 μl each of 2 mM spermine, 10 mM Tris-Cl pH 8.0, 1 mM EDTA, and 2 times with ethanol. After air-drying, 30 μl of Microscint 20 scintillation cocktail (Packard) was added to each well, and the retained cpm were determined by scintillation counting. […] Retained cpm were plotted vs. inhibitor concentration and fit to equation 1 using non-linear regression (ref. 1) to obtain the IC50 values: Retained cpm=A[sqrt{(IC50+It−Et)^2+4*IC50*Et}−(IC50+It−Et)]
Ref. Morrison, J. F. and S. R. Stone. […] Approaches to the study and analysis of the inhibition of enzymes by slow- and tight-binding inhibitors. Comments Mol. Cell. Biophys.
The sequence of the template RNA used was: 5′-[…]

[2] = biological target: T2, HCV polymerase 1B (Δ21 NS5B, BK) (Hepatitis C virus genotype 1b, UniProt P26663); assay: biochemical
T2 construct: 20 to 50 nM Δ21 NS5B
T2 sequence (P26663 2420-2989, stated change not applied): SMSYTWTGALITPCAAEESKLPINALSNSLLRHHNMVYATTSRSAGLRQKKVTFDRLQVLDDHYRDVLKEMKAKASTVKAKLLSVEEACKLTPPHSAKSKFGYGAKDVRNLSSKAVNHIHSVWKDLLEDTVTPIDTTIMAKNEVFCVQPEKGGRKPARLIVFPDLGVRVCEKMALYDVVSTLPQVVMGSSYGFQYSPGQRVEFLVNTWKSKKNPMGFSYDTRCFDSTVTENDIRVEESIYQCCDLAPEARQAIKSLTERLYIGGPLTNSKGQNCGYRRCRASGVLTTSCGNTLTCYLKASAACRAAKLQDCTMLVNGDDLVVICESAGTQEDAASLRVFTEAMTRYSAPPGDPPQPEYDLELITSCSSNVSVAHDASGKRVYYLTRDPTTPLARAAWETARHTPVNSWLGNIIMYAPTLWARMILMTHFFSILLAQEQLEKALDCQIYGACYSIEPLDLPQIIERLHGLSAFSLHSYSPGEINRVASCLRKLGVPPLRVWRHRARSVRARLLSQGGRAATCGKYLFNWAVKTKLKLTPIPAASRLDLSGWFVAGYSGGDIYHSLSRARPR
Description: as §1
Either two-fold serial dilutions (fractional inhibition assay) or a narrower range of dilutions spanning the IC50 of the inhibitor (tight binding assay) of the inhibitors were incubated with 20 mM Tris-Cl pH 7.4, 2 mM MnCl2, 1 mM dithiothreitol, 1 mM ethylene diamine tetraacetic acid (EDTA), 60 to 125 μM GTP and 20 to 50 nM Δ21 NS5B (HCV Strain 1B (BK, Genbank accession number M58335, or H77, Genbank accession number AF011751)) for 15 min at room temperature. The reaction was initiated by the addition of 20 μM CTP, 20 μM ATP, 1 μM ^3H-UTP (10 mCi/umol), 5 nM template RNA and 0.1 U/μl RNase inhibitor (RNasin, Promega), and allowed to proceed for 2 to 4 h at room temperature. Reaction volume was 50 μl. The reaction was terminated by the addition of 1 volume of 4 mM spermine in 10 mM Tris-Cl pH 8.0, 1 mM EDTA. After incubation for at least 15 min at room temperature, the precipitated RNA was captured by filtering through a GF/B filter (Millipore) in a 96 well format. The filter plate was washed three times with 200 μl each of 2 mM spermine, 10 mM Tris-Cl pH 8.0, 1 mM EDTA, and 2 times with ethanol. After air-drying, 30 μl of Microscint 20 scintillation cocktail (Packard) was added to each well, and the retained cpm were determined by scintillation counting. […] Retained cpm were plotted vs. inhibitor concentration and fit to equation 1 using non-linear regression (ref. 1) to obtain the IC50 values: Retained cpm=A[sqrt{(IC50+It−Et)^2+4*IC50*Et}−(IC50+It−Et)]
Ref. Morrison, J. F. and S. R. Stone. 1985. Approaches to the study and analysis of the inhibition of enzymes by slow- and tight-binding inhibitors. Comments Mol. Cell. Biophys. 2: 347-368.
The sequence of the template RNA used was: 5′-[…] […] […] […] […] […] […] […] […] […] […] […] […] […] […] […] […]-3′ (SEQ ID NO: 1)

T1 sequence (P27958 2421-2990, stated change not applied): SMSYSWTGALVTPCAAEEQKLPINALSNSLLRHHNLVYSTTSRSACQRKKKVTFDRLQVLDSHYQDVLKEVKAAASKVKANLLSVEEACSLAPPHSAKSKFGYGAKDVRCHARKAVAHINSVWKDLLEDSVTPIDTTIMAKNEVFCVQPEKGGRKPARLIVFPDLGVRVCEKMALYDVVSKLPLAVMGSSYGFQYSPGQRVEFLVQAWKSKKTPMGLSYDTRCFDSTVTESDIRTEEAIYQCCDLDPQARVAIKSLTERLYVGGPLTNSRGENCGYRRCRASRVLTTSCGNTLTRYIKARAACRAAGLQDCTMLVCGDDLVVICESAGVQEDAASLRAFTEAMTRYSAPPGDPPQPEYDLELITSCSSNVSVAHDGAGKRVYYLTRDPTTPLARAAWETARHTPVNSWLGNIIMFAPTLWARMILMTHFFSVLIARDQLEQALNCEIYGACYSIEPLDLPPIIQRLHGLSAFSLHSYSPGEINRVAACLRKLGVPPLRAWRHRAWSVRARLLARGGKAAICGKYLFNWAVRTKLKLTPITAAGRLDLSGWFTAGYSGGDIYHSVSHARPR

COc1c(C(=O)Nc2ccc(N(COC(C)=O)S(C)(=O)=O)cc2)cc(N2CCC(=O)NC2=O)cc1C(C)(C)C
IC50 [1]: 100 to 1000 nM | IC50 [2]: > 1000 nM

COc1c(-c2ncc(-c3cccc([N+](=O)[O-])c3)o2)cc(N2CCC(=O)NC2=O)cc1C(C)(C)C [IA-L0-1.10, 1-(3-tert-butyl-4-methoxy-5-(5-(3-nitrophenyl)oxazol-2-yl)phenyl)dihydropyrimidine-2,4(1H,3H)-dione]
IC50 [1]: > 1000 nM | IC50 [2]: > 1000 nM

COc1c(-c2ncc(-c3ccc([N+](=O)[O-])cc3)o2)cc(N2CCC(=O)NC2=O)cc1C(C)(C)C [IA-L0-1.11, 1-(3-tert-butyl-4-methoxy-5-(5-(4-nitrophenyl)oxazol-2-yl)phenyl)dihydropyrimidine-2,4(1H,3H)-dione]
IC50 [1]: > 1000 nM | IC50 [2]: > 1000 nM

COc1c(-c2nc3cc(N(S(C)(=O)=O)S(C)(=O)=O)ccc3[nH]2)cc(N2CCC(=O)NC2=O)cc1C(C)(C)C [IA-L0-2.10, N-(2-(3-tert-butyl-5-(2,4-dioxotetrahydropyrimidin-1(2H)-yl)-2-methoxyphenyl)-1H-benzo[d]imidazol-5-yl)-N-(methylsulfonyl)methanesulfonamide]
IC50 [1]: > 1000 nM | IC50 [2]: > 1000 nM

CN(C(=O)c1cc(N2CCC(=O)NC2=O)cc(C(C)(C)C)c1O)c1ccccc1 [IA-L3-1.1, 3-tert-butyl-5-(2,4-dioxotetrahydropyrimidin-1(2H)-yl)-2-hydroxy-N-methyl-N-phenyl-benzamide]
IC50 [1]: > 1000 nM | IC50 [2]: > 1000 nM

COc1c(C(=O)Nc2ccc(N(C)S(C)(=O)=O)cc2)cc(N2CCC(=O)N(C)C2=O)cc1C(C)(C)C [IA-L3-1.25, 3-tert-butyl-N-[4-(methanesulfonyl-methyl-amino)-phenyl]-2-methoxy-5-(3-methyl-2,4-dioxo-tetrahydro-pyrimidin-1-yl)-benzamide]
IC50 [1]: > 1000 nM | IC50 [2]: > 1000 nM

COc1c(C(=O)Nc2ccc(C(C)=O)cc2)cc(N2CCC(=O)NC2=O)cc1C(C)(C)C [IA-L3-1.42, N-(4-acetylphenyl)-3-tert-butyl-5-(2,4-dioxotetrahydropyrimidin-1(2H)-yl)-2-methoxy-benzamide]
IC50 [1]: > 1000 nM | IC50 [2]: > 1000 nM

CCOC(=O)CC(=O)c1ccc(NC(=O)c2cc(N3CCC(=O)NC3=O)cc(C(C)(C)C)c2OC)cc1 [IA-L3-1.43, ethyl 3-(4-(3-tert-butyl-5-(2,4-dioxotetrahydropyrimidin-1(2H)-yl)-2-methoxybenzamido)phenyl)-3-oxopropanoate]
IC50 [1]: > 1000 nM | IC50 [2]: > 1000 nM

COc1c(C(=O)Nc2ccc(NC(C)=O)cc2)cc(N2CCC(=O)NC2=O)cc1C(C)(C)C [IA-L3-1.47, N-(4-acetamidophenyl)-3-tert-butyl-5-(2,4-dioxotetrahydropyrimidin-1(2H)-yl)-2-methoxy-benzamide]
IC50 [1]: > 1000 nM | IC50 [2]: > 1000 nM

COc1c(C(=O)Nc2ccc(NC(=O)COC(C)=O)cc2)cc(N2CCC(=O)NC2=O)cc1C(C)(C)C [IA-L3-1.48, 2-(4-(3-tert-butyl-5-(2,4-dioxotetrahydropyrimidin-1(2H)-yl)-2-methoxybenzamido)phenyl-amino)-2-oxoethyl acetate]
IC50 [1]: > 1000 nM | IC50 [2]: > 1000 nM

COC(=O)Nc1ccc(NC(=O)c2cc(N3CCC(=O)NC3=O)cc(C(C)(C)C)c2OC)cc1 [IA-L3-1.49, Methyl 4-(3-tert-butyl-5-(2,4-dioxotetrahydropyrimidin-1(2H)-yl)-2-methoxybenzamido) phenylcarbamate]
IC50 [1]: > 1000 nM | IC50 [2]: > 1000 nM

COc1c(C(=O)Nc2ccc(NC(=O)OC(C)(C)C)cc2)cc(N2CCC(=O)NC2=O)cc1C(C)(C)C [IA-L3-1.50, Tert-butyl 4-(3-tert-butyl-5-(2,4-dioxotetrahydropyrimidin-1(2H)-yl)-2-methoxybenzamido)-phenylcarbamate]
IC50 [1]: > 1000 nM | IC50 [2]: > 1000 nM

CCN(c1ccc(NC(=O)c2cc(N3CCC(=O)NC3=O)cc(C(C)(C)C)c2OC)cc1)S(C)(=O)=O [IA-L3-1.63, 3-tert-butyl-5-(2,4-dioxotetrahydropyrimidin-1(2H)-yl)-N-(4-(N-ethylmethylsulfonamido)phenyl)-2-methoxybenzamide]
IC50 [1]: > 1000 nM | IC50 [2]: > 1000 nM

COc1c(C(=O)Nc2ccc(N(COC(=O)C(C)(C)C)S(C)(=O)=O)cc2)cc(N2CCC(=O)NC2=O)cc1C(C)(C)C [IA-L3-1.65, (N-(4-(3-tert-butyl-5-(2,4-dioxotetrahydropyrimidin-1(2H)-yl)-2-methoxybenzamido)phenyl)methylsulfonamido)methyl pivalate]
IC50 [1]: > 1000 nM | IC50 [2]: > 1000 nM

COc1c(C(=O)Nc2ccc(N(CC3CC3)S(C)(=O)=O)cc2)cc(N2CCC(=O)NC2=O)cc1C(C)(C)C [IA-L3-1.66, 3-tert-butyl-N-(4-(N-(cyclopropylmethyl)methylsulfonamido)phenyl)-5-(2,4-dioxotetrahydropyrimidin-1(2H)-yl)-2-methoxybenzamide]
IC50 [1]: > 1000 nM | IC50 [2]: > 1000 nM

COc1c(C(=O)Nc2ccc(N(C(=O)C(C)C)S(C)(=O)=O)cc2)cc(N2CCC(=O)NC2=O)cc1C(C)(C)C [IA-L3-1.72, 3-tert-butyl-5-(2,4-dioxotetrahydropyrimidin-1(2H)-yl)-2-methoxy-N-(4-(N-(methylsulfonyl)isobutyramido)phenyl)benzamide]
IC50 [1]: > 1000 nM | IC50 [2]: > 1000 nM

COC(=O)N(c1ccc(NC(=O)c2cc(N3CCC(=O)NC3=O)cc(C(C)(C)C)c2OC)cc1)S(C)(=O)=O [IA-L3-1.73, Methyl 4-(3-tert-butyl-5-(2,4-dioxotetrahydropyrimidin-1(2H)-yl)-2-methoxybenzamido) phenyl(methylsulfonyl)carbamate]
IC50 [1]: > 1000 nM | IC50 [2]: > 1000 nM

CCOC(=O)N(c1ccc(NC(=O)c2cc(N3CCC(=O)NC3=O)cc(C(C)(C)C)c2OC)cc1)S(C)(=O)=O [IA-L3-1.74, Ethyl 4-(3-tert-butyl-5-(2,4-dioxotetrahydropyrimidin-1(2H)-yl)-2-methoxybenzamido)-phenyl(methylsulfonyl)carbamate]
IC50 [1]: > 1000 nM | IC50 [2]: > 1000 nM

COc1c(C(=O)Nc2ccc(N(C(=O)OCC(C)C)S(C)(=O)=O)cc2)cc(N2CCC(=O)NC2=O)cc1C(C)(C)C [IA-L3-1.76, Isobutyl 4-(3-tert-butyl-5-(2,4-dioxotetrahydropyrimidin-1(2H)-yl)-2-methoxybenzamido) phenyl(methylsulfonyl)carbamate]
IC50 [1]: > 1000 nM | IC50 [2]: > 1000 nM

COCCOC(=O)N(c1ccc(NC(=O)c2cc(N3CCC(=O)NC3=O)cc(C(C)(C)C)c2OC)cc1)S(C)(=O)=O [IA-L3-1.77, 2-methoxyethyl 4-(3-tert-butyl-5-(2,4-dioxotetrahydropyrimidin-1(2H)-yl)-2-methoxybenzamido)phenyl(methylsulfonyl)carbamate]
IC50 [1]: > 1000 nM | IC50 [2]: > 1000 nM

COc1c(C(=O)Nc2ccc(S(C)(=O)=O)cc2)cc(N2CCC(=O)NC2=O)cc1C(C)(C)C [IA-L3-1.78, 3-tert-butyl-5-(2,4-dioxotetrahydropyrimidin-1(2H)-yl)-2-methoxy-N-(4-(methylsulfonyl)phenyl)benzamide]
IC50 [1]: > 1000 nM | IC50 [2]: > 1000 nM

COc1c(C(=O)Nc2ccccc2S(C)(=O)=O)cc(N2CCC(=O)NC2=O)cc1C(C)(C)C [IA-L3-1.79, 3-tert-butyl-5-(2,4-dioxotetrahydropyrimidin-1(2H)-yl)-2-methoxy-N-(2-(methylsulfonyl)phenyl)benzamide]
IC50 [1]: > 1000 nM | IC50 [2]: > 1000 nM

COc1c(C(=O)Nc2ccccc2S(N)(=O)=O)cc(N2CCC(=O)NC2=O)cc1C(C)(C)C [IA-L3-1.80, 3-tert-butyl-5-(2,4-dioxotetrahydropyrimidin-1(2H)-yl)-2-methoxy-N-(2-sulfamoylphenyl)benzamide]
IC50 [1]: > 1000 nM | IC50 [2]: > 1000 nM
